Measurements as given in patent US8603493B2, “Carbosilane dendrimers, preparation method thereof and use of same” (Dendrico, S.L., priority 2005, dated 2013).
Entries after “also recorded” stand apart in the source; their conditions may differ.

How the values were obtained:
[1] = system: U87-MG cells; experiment: Transfection of U87-MG cells mediated by dendrimers (flow cytometry); assay type: cell-based; settings: dendriplex with anti-rev oligonucleotide 250 nM, − charge/+ charge ratio 1:8, 24 hours
Protocol: (§1) 100000 cells/well were plated of the corresponding cell line in a 24-well plate with 500 μl of medium.
(§2) Dendriplexes were formed with dendrimers NN and NN16 and the fluorescent anti-rev antisense oligonucleotide in a total volume of 75 μl of medium without serum, wherein the anti-rev oligonucleotide was mixed at a concentration 250 nM and the corresponding dendrimer in different proportions, so that different − charge/+ charge ratios were obtained: 1:1, 1:2, 1:4 and 1:8. The mixture was incubated during half an hour at ambient temperature and then it was added to the corresponding well to incubate the cells with dendriplexes.
(§3) After 24 hours of incubation, the cells were removed from the well, they were washed twice with PBS, they were incubated for 1 minute with acid glycine to remove the possible moieties of dendriplexes which may have remained adhered on the cell membrane, and a final wash was performed with PBS. Finally, the cells were resuspended in 500 μl of PBS and the quantity of fluorescent oligonucleotide inside the cell was quantified by flow cytometry.

[2] = system: U87-MG cells; experiment: Proliferation of U-87-MG cells incubated with dendrimers (MTS); assay type: cell-based; settings: 1 μM, 5 μM and 10 μM, 3 days
Protocol: (§4) The tests were performed with the dendrimers NN (2G-[Si(O(CH2)2N(Me)(CH2)2NMe3^+I^−)]8 (26)) and NN16 (2G-[Si(O(CH2)2N^+(Me)2(CH2)2NMe3^+2I^−)]8 (36)). The transfection tests were performed with the anti-rev RF ODN (SEQ ID NO:2). The culture medium was DMEM+10% bovine foetal serum.
(§5) Different experiments were performed, one with SK-N-MC cells and another with U-87-MG cells, which studied the effect of the dendrimers on the proliferation of said lines. For this, 7000 cells/well were plated of the corresponding in a 96-well dish. […] As positive proliferation control, cells were incubated with 20 μg/ml of LPS and, as positive death induction control, cells were used incubated with 7% DMSO. As negative control untreated cells were used.

[3] = system: SK-N-MC cells; experiment: Proliferation of SK-N-MC cells incubated with dendrimers (MTS); assay type: cell-based; settings: 3 days
Protocol: as §4, §5

[4] = target: T1, Insulin (recombinant human insulin) (Homo sapiens, UniProt P01308); experiment: Dendrimer-drug binding test (polyacrylamide gel delay), insulin; settings: dendrimer 100 μM, insulin 1, 0.5, 0.1, 0.05 U, 37° C., 1 hour
T1 construct: Despite having its molecular weight (5825 g/mol) and establishing an average of 4 (−) charges; purchased Novo Nordisk Actrapid (trade name; no catalogue number given)
T1 sequence (P01308 25-54 limits assumed): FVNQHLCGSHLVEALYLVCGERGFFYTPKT
T1 sequence (P01308 90-110 limits assumed): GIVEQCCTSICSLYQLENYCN
Protocol: (§6) The drugs chosen to perform the tests, all with at least one negative charge at physiological pH, were: • Methotrexate (sodium salt): • 1 charge (−) • Supplying laboratory: Almirall • Presentation: 25 mg/ml solution • Excipients: NaCl, NaOH, HCl, double-distilled H2O • Heparin (sodium salt) • Several charges (−) • Supplying laboratory: Rovi • Presentation: 10 mg/ml solution (1000 U) • Excipients: methyl p-oxybenzoate, propyl p-oxybenzoate, NaCl, double-distilled H2O • Insulin (recombinant human insulin) • 4 charges (−) • Supplying laboratory: Novo Nordisk • Product trade name: Actrapid • Presentation: 3.5 mg/ml solution (100 U) • Excipients: ZnCl2, HCl, NaOH, double-distilled H2O
(§7) The determination of the bond and complex formation between the dendrimer and the drug was performed by evaluating the delay in the polyacrylamide gel of the dendrimer bound to drug with respect to the free dendrimer: • Complex formation: It is performed in a final volume of the mixture of 30 μl, which is the maximum volume to load in the gel. To do this, one starts from the necessary quantity of dendrimer that provides a perfectly identifiable band by staining with silver nitrate in the gel once the electrophoresis has been carried out: 20 μl of a 100 μM solution, which corresponds to […] molecules. The drug is added in the 10 μl at different concentrations to produce the chosen (+) and (−) charge ratios, also determining the quantity of drug molecules present in the mixture. An incubation of said mixture was performed at 37° C. during 1 hour to give time for a more thermodynamically stable complex to form, although more time may be needed for its formation. Each complex is performed in duplicate. • Electrophoresis and gel staining: The gels used were 7.5% polyacrylamide/bisacrylamide, prepared with 1.5M Tris pH 8.8. Each electrophoresis was carried out at 90 volts during 4 hours, after which the gel was stained with silver nitrate and photographed. […]

[5] = system: U87-MG cells; experiment: Toxicity in U-87-MG cells: LDH in the supernatant; settings: 24 hours
Text: The concentrations and volumes of each one of these compounds were the same used in the test performed with MTT. The commercial kit Cytotoxicity Detection KitPLUS (LDH), from Roche Applied Science was used to determine lactate dehydrogenase, following the manufacturer's instructions.

[6] = system: SK-N-MC cells; experiment: Transfection of SK-N-MC cells mediated by dendrimers (flow cytometry); assay type: cell-based; settings: dendriplex with anti-rev oligonucleotide 250 nM, − charge/+ charge ratio 1:4, 24 hours
Protocol: as §1, §2, §3

[7] = system: U87-MG cells; experiment: Toxicity in U-87-MG cells: tests with MTT
Protocol: A test with U-87-MG cells was performed, wherein the effect of the dendrimers on the viability of said lines was studied at different times. To do this, 15000 (24 hour incubations), 7000 (3 day incubations) or 1500 (7 day incubations) cells per well were plated in 96-well plates. The cells were incubated with different concentrations (1 μM, 5 μM and 10 μM) either NN dendrimer or NN16 dendrimer, during 24 hours, 3 days and 7 days. […] Two different positive controls were also used: cells treated with 7% DMSO and cells treated with 1% Triton X-100.
In the case of Superfect, three doses were tested, the optimum dose recommended by the manufacturer (2.5 μl), a lower dose (1.25 μl) and another higher dose (5 μl). With regard to Polyfect, specifically designed for adherent cells, the three doses tested were: optimum dose (0.6 μl), lower dose (0.3 μl) and higher dose (1.2 μl).
After each corresponding incubation time, a test was performed with MTT analogous to that described in Example 38. At the absorbance value obtained in the untreated cells (C−) it was given the value of 1 and the moiety of the absorbencies produced was used to refer to it.

[8] = Dendrimer-drug binding test (polyacrylamide gel delay), heparin; settings: dendrimer 100 μM, heparin 10, 1, 0.5, 0.1 U, 37° C., 1 hour
Protocol: as §6, §7

[9] = Dendrimer-drug binding test (polyacrylamide gel delay), methotrexate; settings: dendrimer 100 μM, charge ratios 1+/1− to 8+/1−, 37° C., 1 hour
Protocol: as §6, §7

[10] = system: SK-N-MC cells; experiment: Toxicity in SK-N-MC cells: test with MTT; assay type: cell-based; settings: 24 hours, 1, 5, 10 μM

SMILES: C[N+](C)(C)CC[N+](C)(C)CCO[Si](C)(C)CCC[Si](C)(CCC[Si](CCC[Si](C)(CCC[Si](C)(C)OCC[N+](C)(C)CC[N+](C)(C)C)CCC[Si](C)(C)OCC[N+](C)(C)CC[N+](C)(C)C)(CCC[Si](C)(CCC[Si](C)(C)OCC[N+](C)(C)CC[N+](C)(C)C)CCC[Si](C)(C)OCC[N+](C)(C)CC[N+](C)(C)C)CCC[Si](C)(CCC[Si](C)(C)OCC[N+](C)(C)CC[N+](C)(C)C)CCC[Si](C)(C)OCC[N+](C)(C)CC[N+](C)(C)C)CCC[Si](C)(C)OCC[N+](C)(C)CC[N+](C)(C)C [NN16, 2G-[Si(O(CH2)2N^+(Me)2(CH2)2NMe3^+2I^−)]8]
- percentage of cells transfected [1]: 97.8%
- effect on cell proliferation (MTS) [2]: neither induce proliferation nor cell death
- effect on cell proliferation (MTS) ([3]; 1 μM and 5 μM): do not produce toxicity nor cell proliferation
- effect on cell proliferation (MTS) ([3]; 10 μM): toxic
- dendrimer-insulin complex formation (delay in gel) [4]: complex is formed
- cytotoxicity (LDH), comparison [5]: greater cytotoxicity as their concentration increases; also recorded: less toxic than NN
- percentage of cells transfected (maximum transfection) [6]: 82.3%
- viability (MTT), untreated cells (C−) = 1 ([7]; 3 days, any one of the three concentrations (1, 5, 10 μM)): ~0.8
- viability (MTT), untreated cells (C−) = 1 ([7]; 7 days, 10 μM): 0.7
- dendrimer-heparin complex formation (delay in gel) [8]: complex is formed
- dendrimer-methotrexate complex formation (delay in gel) [9]: complex is formed
- toxicity (MTT), comparison [10]: least toxicity
